Results: patent US20070298994A1, “Use of 3-Mercapto-3-Methyl-Hexan-1-Ol for Use as Malodour Standard” (SYMRISE GMBH & CO. KG, priority 2004, published 2007)
Where two headings read alike, the source gives them in different places.

Experiments:
[1] = Raw material test against sweat odour (masking of malodour standard, assessor panel)
[2] = Application test in the formulations (smelling strips, assessor panel); set-up: Malodour reduction value: scale not given here; conditions: smelling strip, 1 μl 3-mercapto-3-methyl-hexan-1-ol solution (0.001% in DPG), at least 12 experts
Procedure: Mixtures A-C and the fragrances of Table 4 were incorporated in the formulations of Examples 3-12 as perfume oil. […] The coding smelling strips were evaluated sensorily by a group of assessors of at least 12 experts.

[3] = Table 1, 1 μl fragrance + 5 μl 3-mercapto-3-methyl-hexan-1-ol (0.1% in DPG) in 7 l air, 15 h at approx. 20° C., scale 1 to 9, malodour standard mixture = 6, mean of at least 8 assessors
[4] = Table 3 (adequate malodour-reducing action but significant increase in intensity), 1 μl fragrance + 5 μl 3-mercapto-3-methyl-hexan-1-ol (0.1% in DPG) in 7 l air, 15 h, scale 1 to 9, standard = 6
[5] = Table 2 (raw materials without adequate malodour-reducing action), 1 μl fragrance + 5 μl 3-mercapto-3-methyl-hexan-1-ol (0.1% in DPG) in 7 l air, 15 h, scale 1 to 9, standard = 6
[6] = Table 4, tests with the mixtures (Example 2), according to the raw material test method
[7] = in EXAMPLE 3: ROLL-ON DEODORANT GEL
[8] = in EXAMPLE 6: GEL AIR FRESHENER
[9] = in EXAMPLE 7: AEROSOL DEODORANT
[10] = in EXAMPLE 9: HAIR SETTING LOTION
[11] = prior-art fragrances examined by the applicant

Structure (SMILES): CC(=O)OC(C)(C)C1CC=C(C)CC1 (stereo not drawn) [ACETIC ACID-ALPHA-TERPINYL ESTER]
- Increase In intensity [1, 3]: −0.3
- Odour reduction value [1, 3]: 4.0

Structure (SMILES): CC(=O)O[C@H]1CC[C@H](C(C)(C)C)CC1 [ACETIC-TRANS-4-TERT.-BUTYL CYCLOHEXYL ESTER]
- Increase In intensity [1, 3]: 0.2
- Odour reduction value [1, 3]: 5.1

Structure (SMILES): C=CCOC(=O)CCCCC [ALLYL CAPRONATE]
- Increase In intensity [1, 3]: 1.0
- Odour reduction value [1, 3]: 3.0

Structure (SMILES): C=CCOC(=O)CCCCCC [ALLYL HEPTYLATE]
- Increase In intensity [1, 3]: −0.5
- Odour reduction value [1, 3]: 3.0

Structure (SMILES): C=CC(C)(C#N)Cc1ccccc1 (stereo not drawn) [ALPHA-ETHENYL-ALPHA-METHYL-BENZENE PROPANE NITRILE]
- Increase In intensity [1, 3]: 1.0
- Odour reduction value [1, 3]: 4.2

Structure (SMILES): Cc1cccc(CC(C)(C)C(C)O)c1 (stereo not drawn) [ALPHA.BETA.BETA.3-TETRAMETHYL-BENZENE PROPANOL]
- Increase In intensity [1, 3]: 0.2
- Odour reduction value [1, 3]: 4.6

Structure (SMILES): CCCCCOC(=O)c1ccccc1O [AMYL SALICYLATE, reference compound]
- Increase in intensity [1, 4]: 2.4
- Malodour-reduction value [1, 4]: 3.6

Structure (SMILES): CC(=O)OCc1ccccc1 [BENZYL ACETATE, reference compound]
- Increase in intensity [1, 5]: 0.4
- Malodour reduction value [1, 5]: 2.5

Structure (SMILES): OCc1ccccc1 [BENZYL ALCOHOL, reference compound]
- Increase in intensity [1, 5]: 2.0
- Malodour reduction value [1, 5]: −2.0

Structure (SMILES): CCOC(=O)OC1C(C)CCC(C)C1C (centres unmarked) [CARBONIC ACID-ETHYL-2.3.6-TRIMETHYL CYCLOHEXYL ESTER]
- Increase In intensity [1, 3]: 1.0
- Odour reduction value [1, 3]: 4.6

Structure (SMILES): CC(C)=CCCC(C)CCO (centres unmarked) [CITRONELLOL, reference compound]
- Increase in intensity [1, 5]: −0.2
- Malodour reduction value [1, 5]: 2.2

Structure (SMILES): C/C=C/C(=O)OC(C)C1CCCCC1 (centres unmarked) [CROTONIC ACID-1-CYCLOHEXYL ETHYL ESTER]
- Increase In intensity [1]: 0.8
- Odour reduction value [1]: 3.7

Structure (SMILES): C/C=C/C(=O)OC(C)CC(C)C (centres unmarked) [CROTONIC ACID-4-METHYL-2-[…]]
- Increase In intensity [1, 3]: −0.5
- Odour reduction value [1, 3]: 3.5

Structure (SMILES): COC1(OC)CCCCCCCCCCC1 [CYCLODODECANONE DIMETHYL KETAL]
- Increase In intensity [1, 3]: 1.5
- Odour reduction value [1, 3]: 4.0

Structure (SMILES): COC1CCCCCCCCCCC1 [CYCLODODECYL METHYL ETHER]
- Increase In intensity [1, 3]: 0.7
- Odour reduction value [1, 3]: 3.1

Structure (SMILES): CCCCCCCCCC=O [DECANAL]
- Increase In intensity [1, 3]: 0.2
- Odour reduction value [1, 3]: 3.0

Structure (SMILES): CCOC(=O)c1ccccc1C(=O)OCC [DEP, diethyl phthalate, reference compound]
- Increase in intensity [1, 6]: −0.1
- Malodour reduction value [1, 6]: 0.0
- effect on the intensity of the bad odour ([1]; solvents): no effect
- effect on the total intensity ([1]; solvents): no effect

Structure (SMILES): CCCCCCCCCCCC=O [DODECANAL, reference compound]
- Increase in intensity [1, 5]: 2.0
- Malodour reduction value [1, 5]: 2.0

Structure (SMILES): CCOC(C)=O [ETHYL ACETATE]
- Increase in intensity [2, 7]: −0.1
- Malodour reduction value [2, 7]: 0.5
- Increase in intensity ([2]; in EXAMPLE 4: W/O CREAM): 0.0
- Malodour reduction value ([2]; in EXAMPLE 4: W/O CREAM): 1.0
- Increase in intensity ([2]; in EXAMPLE 5: O/W LOTION): 0.5
- Malodour reduction value ([2]; in EXAMPLE 5: O/W LOTION): 0.5
- Increase in intensity [2, 8]: 0.5
- Malodour reduction value [2, 8]: 0.8
- Increase in intensity [2, 9]: −0.5
- Malodour reduction value [2, 9]: 1.1
- Increase in intensity ([2]; in EXAMPLE 8: FOOT CREAM): 0.5
- Malodour reduction value ([2]; in EXAMPLE 8: FOOT CREAM): 0.8
- Increase in intensity [2, 10]: −0.5
- Malodour reduction value [2, 10]: 1.2
- Increase in intensity ([2]; in EXAMPLE 10: CARE MASK): 0.8
- Malodour reduction value ([2]; in EXAMPLE 10: CARE MASK): 1.2
- Increase in intensity ([2]; in EXAMPLE 11: SKIN OIL): −0.5
- Malodour reduction value ([2]; in EXAMPLE 11: SKIN OIL): 0.3
- Increase in intensity ([2]; in EXAMPLE 12: OINTMENT): −0.6
- Malodour reduction value ([2]; in EXAMPLE 12: OINTMENT): 0.0
- Increase in intensity [1, 5]: −0.9
- Malodour reduction value [1, 5]: 1.1
- Increase in intensity [1, 6]: −1.1
- Malodour reduction value [1, 6]: 1.1

Structure (SMILES): C=CCc1ccc(O)c(OC)c1 [EUGENOL]
- Increase In intensity [1, 3]: 0.7
- Odour reduction value [1, 3]: 6.0

Structure (SMILES): CC(=O)/C(C)=C/C1C(C)=CCCC1(C)C (centres unmarked) [GAMMA-METHYLICONE, reference compound]
- Increase in intensity [1, 4]: 2.1
- Malodour-reduction value [1, 4]: 4.0

Structure (SMILES): CC(=O)OC/C=C(\C)CCC=C(C)C [GERANYL ACETATE, reference compound]
- Increase in intensity [1, 4]: 2.2
- Malodour-reduction value [1, 4]: 3.0

Structure (SMILES): CC(C)=CCCC(C)=CC#N [GERANYL NITRILE, 3,7-dimethyl-2,6-octadiene-1-nitrile, reference compound]
- Increase in intensity [1, 4]: 3.0
- Malodour-reduction value [1, 4]: 5.0
- intrinsic odour / perfumistic impression (in words) [1, 11]: strong intrinsic odour
- reduction in the bad odour based on 3-mercapto-3-methyl-hexan-1-ol (in words) [1, 11]: does show a reduction in the bad odour

Structure (SMILES): CC(C)COC(=O)C=Cc1ccccc1 [ISOBUTYL CINNAMATE]
- Increase In intensity [1, 3]: 0.8
- Odour reduction value [1, 3]: 3.1

Structure (SMILES): C=CC(C)(O)CCC=C(C)C (centres unmarked) [LINALOOL]
- Increase In intensity [1, 3]: 1.0
- Odour reduction value [1, 3]: 5.0

Structure (SMILES): CC(=O)OC1CC(C)CCC1C(C)C (centres unmarked) [MENTHYL ACETATE, reference compound]
- Increase in intensity [1, 4]: 2.9
- Malodour-reduction value [1, 4]: 4.4

Structure (SMILES): CCCCCCCCC=O [NONANAL, reference compound]
- Increase in intensity [1, 4]: 2.1
- Malodour-reduction value [1, 4]: 3.0

Structure (SMILES): CCCCCCCC=O [OCTANAL, reference compound]
- Increase in intensity [1, 5]: 0.9
- Malodour reduction value [1, 5]: 2.4

Structure (SMILES): OCCCc1ccccc1 [PHENYL PROPYL ALCOHOL, reference compound]
- Increase in intensity [1, 5]: 1.0
- Malodour reduction value [1, 5]: 0.0

Structure (SMILES): CC(C)CCOC(=O)c1ccccc1O [SALICYLIC ACID 3-METHYLBUTYL ESTER]
- Increase In intensity [1, 3]: 1.0
- Odour reduction value [1, 3]: 3.3

Structure (SMILES): CCCCCCOC(=O)c1ccccc1O [SALICYLIC ACID HEXYL ESTER]
- Increase In intensity [1, 3]: 1.7
- Odour reduction value [1, 3]: 3.7

Structure (SMILES): CC(C)=CCOC(=O)c1ccccc1O [SALICYLIC ACID PRENYL ESTER]
- Increase In intensity [1, 3]: 0.2
- Odour reduction value [1, 3]: 3.6

Structure (SMILES): CCCCCC1COCCC1OC(C)=O (centres unmarked) [TETRAHYDRO-3-PENTYL-PYRAN-4-OL ACETATE]
- Increase In intensity [1, 3]: 1.5
- Odour reduction value [1, 3]: 4.5
- Increase in intensity [1, 5]: 1.0
- Malodour reduction value [1, 5]: 2.0

Structure (SMILES): CCC(C)(O)CCCC(C)C (centres unmarked) [TETRAHYDROLINALOOL, reference compound]
- Increase in intensity [1, 4]: 2.3
- Malodour-reduction value [1, 4]: 3.0

Structure (SMILES): CCC(C)CCCC(C)(C)O (centres unmarked) [TETRAHYDROMYRCENOL, reference compound]
- Increase in intensity [1, 4]: 2.2
- Malodour-reduction value [1, 4]: 4.0

Structure (SMILES): C/C=C(\C)C(=O)OC/C=C(\C)CCC=C(C)C [TIGLIC ACID GERANYL ESTER]
- Increase In intensity [1, 3]: 0.8
- Odour reduction value [1, 3]: 4.5

Structure (SMILES): CC(C)[C@H]1CC[C@H](O)CC1 [TRANS-4-ISOPROPYL CYCLOHEXANOL]
- Increase In intensity [1, 3]: 1.0
- Odour reduction value [1, 3]: 4.1

Structure (SMILES): CCCCCCCCCCCC#N [UNDECYL CYANIDE]
- Increase In intensity [1, 3]: 1.6
- Odour reduction value [1, 3]: 3.3

Structure (SMILES): COc1cc(C=O)ccc1O [VANILLIN, reference compound]
- Increase in intensity [1, 5]: 1.0
- Malodour reduction value [1, 5]: 0.0

Structure (SMILES): CC1CC(C)(c2ccccc2)OC(C)O1 (centres unmarked) [reference compound]
- Increase in intensity [1]: −0.7
- Malodour reduction value [1]: 1.1

Structure (SMILES): CCCCCC(C=O)=Cc1ccccc1 [reference compound]
- Increase in intensity [1, 5]: 1.0
- Malodour reduction value [1, 5]: 0.0
